Measurements: publication PMC10178848, “Modulating fast skeletal muscle contraction protects skeletal muscle in animal models of Duchenne muscular dystrophy” (The Journal of Clinical Investigation, 2023)

Tested on: mdx mouse EDL muscle
Experiment: Phosphoprotein array analysis (Cell Signaling Phospho Antibody Array)
Protocol: mdx mouse EDL muscle was prepared for ex vivo analysis as described (n = 5). Muscles were incubated for 1 hour with DMSO or EDG-5506 (5 μM) and then flash frozen in liquid nitrogen. Tissue preparation and analysis were performed as recommended by the manufacturer (Cell Signaling Phospho Antibody Array, Full Moon Biosystems).

`O=c1ccc(-c2cnc(OCC(F)(F)F)nc2)nn1Cc1cncc(F)c1` [EDG-5506] was tested, and the “Data Normalized to Median Signal: BAX (Phospho-Thr167)” value was 0.77, the “Fold Change T/C: 4E-BP1 (Ab-45)” value (5 μM, 1 hour) was 0.88 and the “Fold Change T/C: 4E-BP1 (Phospho-Thr45)” value (5 μM, 1 hour) was 0.74. The “Fold Change T/C: 14-3-3 theta/tau (Phospho-Ser232)” value (5 μM, 1 hour) was 1.01, the “Fold Change T/C: 14-3-3 zeta/delta (Ab-232)” value (5 μM, 1 hour) was 1.03 and the “Fold Change T/C: ACC1 (Ab-80)” value (5 μM, 1 hour) was 0.96. For the same molecule, the “Fold Change T/C: ACC1 (Phospho-Ser80)” value (5 μM, 1 hour) was 0.92, the “Fold Change T/C: AKT” value (5 μM, 1 hour) was 0.96 and the “Fold Change T/C: AKT1 (Ab-308)” value (5 μM, 1 hour) was 1.11. For the same molecule, the “Fold Change T/C: AKT1S1 (Ab-246)” value (5 μM, 1 hour) was 1.04, the “Fold Change T/C: AMPKbeta1 (Ab-182)” value (5 μM, 1 hour) was 0.89 and the “Fold Change T/C: AMPKbeta1 (Phospho-Ser182)” value (5 μM, 1 hour) was 0.80. The “Fold Change T/C: ASK1 (Ab-966)” value (5 μM, 1 hour) was 0.99, the “Fold Change T/C: ATF2 (Ab-62/44)” value (5 μM, 1 hour) was 2.53 and the “Fold Change T/C: Actin Pan(a/b/g) (Ab-55/53)” value (5 μM, 1 hour) was 0.97. The “Fold Change T/C: B-RAF (Ab-598)” value (5 μM, 1 hour) was 1.09, the “Fold Change T/C: B-RAF (Phospho-Ser446)” value (5 μM, 1 hour) was 1.05 and the “Fold Change T/C: BAX (Phospho-Thr167)” value (5 μM, 1 hour) was 0.78. For the same molecule, the “Fold Change T/C: BCL-XL (Ab-47)” value (5 μM, 1 hour) was 1.77, the “Fold Change T/C: BCL-XL (Phospho-Ser62)” value (5 μM, 1 hour) was 1.02 and the “Fold Change T/C: BID (Ab-78)” value (5 μM, 1 hour) was 1.23. For the same molecule, the “Fold Change T/C: BLNK (Ab-96)” value (5 μM, 1 hour) was 0.97, the “Fold Change T/C: BLNK (Phospho-Tyr96)” value (5 μM, 1 hour) was 0.51 and the “Fold Change T/C: BRCA1 (Ab-1524)” value (5 μM, 1 hour) was 1.39. For the same molecule, the “Fold Change T/C: Bax” value (5 μM, 1 hour) was 0.89, the “Fold Change T/C: Beclin-1” value (5 μM, 1 hour) was 1.49 and the “Fold Change T/C: Beta actin” value (5 μM, 1 hour) was 0.82. For the same molecule, the “Fold Change T/C: CBL (Phospho-Tyr700)” value (5 μM, 1 hour) was 0.88, the “Fold Change T/C: CDC25C (Ab-216)” value (5 μM, 1 hour) was 1.97 and the “Fold Change T/C: CDK1/CDC2 (Phospho-Tyr15)” value (5 μM, 1 hour) was 0.83. The “Fold Change T/C: CREB (Ab-133)” value (5 μM, 1 hour) was 0.71, the “Fold Change T/C: CREB (Phospho-Ser133)” value (5 μM, 1 hour) was 0.74 and the “Fold Change T/C: CaMK2-beta/gamma/delta (Ab-287)” value (5 μM, 1 hour) was 1.42. The “Fold Change T/C: CaMK2-beta/gamma/delta (Phospho-Thr287)” value (5 μM, 1 hour) was 0.92, the “Fold Change T/C: CaMK2A (Phospho-Thr286)” value (5 μM, 1 hour) was 0.86 and the “Fold Change T/C: Calmodulin (Ab-79/81)” value (5 μM, 1 hour) was 1.02. The “Fold Change T/C: Caspase 8 (Phospho-Ser347)” value (5 μM, 1 hour) was 1.08, the “Fold Change T/C: Caspase 9 (Ab-196)” value (5 μM, 1 hour) was 2.31 and the “Fold Change T/C: Caspase 9 (Phospho-Ser196)” value (5 μM, 1 hour) was 0.94. The “Fold Change T/C: Catalase (Ab-385)” value (5 μM, 1 hour) was 1.34, the “Fold Change T/C: Catenin beta (Ab-37)” value (5 μM, 1 hour) was 1.21 and the “Fold Change T/C: Catenin beta (Phospho-Thr41/Ser45)” value (5 μM, 1 hour) was 0.83. The “Fold Change T/C: Chk2 (Ab-68)” value (5 μM, 1 hour) was 1.17, the “Fold Change T/C: Chk2 (Phospho-Thr68)” value (5 μM, 1 hour) was 0.51 and the “Fold Change T/C: CrkII (Ab-221)” value (5 μM, 1 hour) was 1.59. For the same molecule, the “Fold Change T/C: Cyclin D1 (Ab-286)” value (5 μM, 1 hour) was 1.10, the “Fold Change T/C: Cyclin D1 (Phospho-Thr286)” value (5 μM, 1 hour) was 1.18 and the “Fold Change T/C: Cyclin E1 (Ab-77)” value (5 μM, 1 hour) was 1.24. For the same molecule, the “Fold Change T/C: Cyclin E1 (Phospho-Thr77)” value (5 μM, 1 hour) was 1.02, the “Fold Change T/C: DARPP-32 (Ab-34)” value (5 μM, 1 hour) was 1.01 and the “Fold Change T/C: DARPP-32 (Phospho-Thr34)” value (5 μM, 1 hour) was 0.91. The “Fold Change T/C: EEF2 (Ab-56)” value (5 μM, 1 hour) was 0.84, the “Fold Change T/C: EEF2 (Phospho-Thr56)” value (5 μM, 1 hour) was 1.12 and the “Fold Change T/C: EGFR (Ab-1172)” value (5 μM, 1 hour) was 0.86. The “Fold Change T/C: Elk1 (Ab-389)” value (5 μM, 1 hour) was 1.22, the “Fold Change T/C: FADD (Phospho-Ser194)” value (5 μM, 1 hour) was 1.53 and the “Fold Change T/C: FAK (Ab-910)” value (5 μM, 1 hour) was 1.76. The “Fold Change T/C: FAK (Phospho-Ser910)” value (5 μM, 1 hour) was 1.09, the “Fold Change T/C: FGFR1 (Phospho-Tyr654)” value (5 μM, 1 hour) was 1.35 and the “Fold Change T/C: FKHRL1/FOXO3A (Ab-253)” value (5 μM, 1 hour) was 1.74. For the same molecule, the “Fold Change T/C: FOXO1/3/4-pan (Ab-24/32)” value (5 μM, 1 hour) was 1.40, the “Fold Change T/C: GAPDH” value (5 μM, 1 hour) was 0.75 and the “Fold Change T/C: GRK2 (Ab-29)” value (5 μM, 1 hour) was 1.92. For the same molecule, the “Fold Change T/C: GRK2 (Phospho-Ser29)” value (5 μM, 1 hour) was 1.26, the “Fold Change T/C: GSK3 alpha/beta (Phospho-Tyr216/279)” value (5 μM, 1 hour) was 0.97 and the “Fold Change T/C: GSK3 beta” value (5 μM, 1 hour) was 1.12. For the same molecule, the “Fold Change T/C: Gab1 (Ab-627)” value (5 μM, 1 hour) was 1.06, the “Fold Change T/C: Gab2 (Phospho-Tyr643)” value (5 μM, 1 hour) was 1.59 and the “Fold Change T/C: HDAC1 (Ab-421)” value (5 μM, 1 hour) was 0.79. The “Fold Change T/C: HDAC1 (Phospho-Ser421)” value (5 μM, 1 hour) was 1.25, the “Fold Change T/C: HDAC2 (Ab-394)” value (5 μM, 1 hour) was 1.03 and the “Fold Change T/C: HDAC2 (Phospho-Ser394)” value (5 μM, 1 hour) was 0.90. The “Fold Change T/C: HER2 (Ab-1221/1222)” value (5 μM, 1 hour) was 1.19, the “Fold Change T/C: HSP27 (Ab-82)” value (5 μM, 1 hour) was 0.82 and the “Fold Change T/C: HSP90B (Phospho-Ser226)” value (5 μM, 1 hour) was 1.00. The “Fold Change T/C: IKK alpha/beta (Ab-180/181)” value (5 μM, 1 hour) was 0.91, the “Fold Change T/C: IKK-beta (Ab-199)” value (5 μM, 1 hour) was 1.62 and the “Fold Change T/C: IKK-beta (Phospho-Tyr188)” value (5 μM, 1 hour) was 1.01. For the same molecule, the “Fold Change T/C: IKK-beta (Phospho-Tyr199)” value (5 μM, 1 hour) was 0.84, the “Fold Change T/C: IKK-gamma (Ab-31)” value (5 μM, 1 hour) was 0.96 and the “Fold Change T/C: IKK-gamma (Phospho-Ser31)” value (5 μM, 1 hour) was 0.98. The “Fold Change T/C: IL-4R/CD124 (Ab-497)” value (5 μM, 1 hour) was 0.93, the “Fold Change T/C: IL-4R/CD124 (Phospho-Tyr497)” value (5 μM, 1 hour) was 0.93 and the “Fold Change T/C: IL-10R-alpha (Ab-496)” value (5 μM, 1 hour) was 1.30. For the same molecule, the “Fold Change T/C: IL-10R-alpha (Phospho-Tyr496)” value (5 μM, 1 hour) was 0.85, the “Fold Change T/C: IRS-1 (Ab-312)” value (5 μM, 1 hour) was 1.03 and the “Fold Change T/C: IkB-alpha (Phospho-Ser32/36)” value (5 μM, 1 hour) was 1.11. For the same molecule, the “Fold Change T/C: IkB-epsilon (Ab-22)” value (5 μM, 1 hour) was 1.30, the “Fold Change T/C: Integrin beta-3 (Ab-773)” value (5 μM, 1 hour) was 1.08 and the “Fold Change T/C: Integrin beta-3 (Phospho-Tyr773)” value (5 μM, 1 hour) was 0.93. For the same molecule, the “Fold Change T/C: Interferon-alpha/beta receptor alpha chain (Ab-466)” value (5 μM, 1 hour) was 0.90, the “Fold Change T/C: JAK2 (Ab-1007)” value (5 μM, 1 hour) was 1.36 and the “Fold Change T/C: JunB (Phospho-Ser259)” value (5 μM, 1 hour) was 0.79. For the same molecule, the “Fold Change T/C: LCK (Ab-393)” value (5 μM, 1 hour) was 1.67, the “Fold Change T/C: LKB1 (Ab-334)” value (5 μM, 1 hour) was 0.94 and the “Fold Change T/C: LYN (Ab-507)” value (5 μM, 1 hour) was 0.58. For the same molecule, the “Fold Change T/C: LYN (Phospho-Tyr507)” value (5 μM, 1 hour) was 1.06, the “Fold Change T/C: Lamin A/C (Ab-392)” value (5 μM, 1 hour) was 1.84 and the “Fold Change T/C: Lamin A/C (Phospho-Ser392)” value (5 μM, 1 hour) was 0.80. For the same molecule, the “Fold Change T/C: MDM2 (Ab-166)” value (5 μM, 1 hour) was 1.49, the “Fold Change T/C: MEK1 (Ab-291)” value (5 μM, 1 hour) was 0.77 and the “Fold Change T/C: MEK1 (Phospho-Ser217)” value (5 μM, 1 hour) was 0.62. For the same molecule, the “Fold Change T/C: MITF (Ab-73)” value (5 μM, 1 hour) was 1.38, the “Fold Change T/C: MKK4/SEK1 (Ab-80)” value (5 μM, 1 hour) was 1.10 and the “Fold Change T/C: MSK1 (Ab-360)” value (5 μM, 1 hour) was 0.69. The “Fold Change T/C: Myc (Ab-58)” value (5 μM, 1 hour) was 1.09, the “Fold Change T/C: NFkB-p65 (Ab-529)” value (5 μM, 1 hour) was 1.14 and the “Fold Change T/C: NFkB-p65 (Phospho-Ser311)” value (5 μM, 1 hour) was 1.00. The “Fold Change T/C: NFkB-p65 (Phospho-Ser529)” value (5 μM, 1 hour) was 0.82, the “Fold Change T/C: NFkB-p100/p52 (Ab-865)” value (5 μM, 1 hour) was 0.76 and the “Fold Change T/C: NFkB-p100/p52 (Phospho-Ser865)” value (5 μM, 1 hour) was 0.88. For the same molecule, the “Fold Change T/C: NFkB-p105/p50 (Ab-927)” value (5 μM, 1 hour) was 0.85, the “Fold Change T/C: P38 MAPK (Ab-182)” value (5 μM, 1 hour) was 1.70 and the “Fold Change T/C: P38 MAPK (Phospho-Thr180/Tyr182)” value (5 μM, 1 hour) was 0.35. The “Fold Change T/C: P70S6K (Ab-229)” value (5 μM, 1 hour) was 1.33, the “Fold Change T/C: P70S6K (Phospho-Ser424)” value (5 μM, 1 hour) was 1.00 and the “Fold Change T/C: P90RSK (Ab-359/363)” value (5 μM, 1 hour) was 1.06. The “Fold Change T/C: P90RSK (Phospho-Thr359/Ser363)” value (5 μM, 1 hour) was 0.95, the “Fold Change T/C: PDK1 (Ab-241)” value (5 μM, 1 hour) was 1.24 and the “Fold Change T/C: PDK1 (Phospho-Ser241)” value (5 μM, 1 hour) was 1.14. The “Fold Change T/C: PLCG1 (Phospho-Tyr783)” value (5 μM, 1 hour) was 2.25, the “Fold Change T/C: PLK1 (Ab-210)” value (5 μM, 1 hour) was 1.49 and the “Fold Change T/C: PLK1 (Phospho-Thr210)” value (5 μM, 1 hour) was 0.60. For the same molecule, the “Fold Change T/C: PP1 alpha (Ab-320)” value (5 μM, 1 hour) was 1.15, the “Fold Change T/C: PP2A-alpha (Ab-307)” value (5 μM, 1 hour) was 1.23 and the “Fold Change T/C: PP2A-alpha (Phospho-Tyr307)” value (5 μM, 1 hour) was 0.93.
